Structures can show the parent of a compound that is named as a salt.
assay: MIC of test compounds against various organisms; assay type: cell-based; conditions: not given
Experimental: The MIC (μg/ml) of test compounds against various organisms was determined including:
S. epidermidis CL7, S. aureus WCUH29, S. pneumoniae 1629, S. pyogenes CN10, H. influenzae ATCC 49247, E. faecalis 2, M. catarrhalis Ravasio, E. coli 7623.

| SMILES | MIC [µg/mL] |
| --- | --- |
| O=C1CSc2ccc(CN[C@H]3CC[C@H](C(=O)Nc4ccnc5ccccc45)CC3)nc2N1 [Example 3, trans-4-[(3-Oxo-3,4-dihydro-2H-pyrido[3,2-b][1,4]thiazin-6-ylmethyl)-amino]-cyclohexanecarboxylic acid quinolin-4-ylamide dihydrochloride] | ≤ 8 |

same assay, conditions: versus all these organisms (panel of 8 strains); read-out: MIC

| MIC [µg/mL] | SMILES |
| --- | --- |
| ≤ 8 | O=C1CSc2ccc(CN[C@H]3CC[C@](O)(C(=O)Nc4ccnc5ccsc45)CC3)nc2N1 [Example 1, 1 -Hydroxy-t-4-[(3-oxo-3,4-dihydro-2H-pyrido[3,2-b][1 ,4]thiazin-6-ylmethyl) -amino]-r-cyclohexanecarboxylic acid thieno[3,2-b]pyridin-7-ylamide dihydrochioride] |
| ≤ 2 | COc1ccc2cccc(NC(=O)[C@]3(O)CC[C@@H](NCc4ccc5c(n4)NC(=O)CS5)CC3)c2n1 [Example 5, 1-Hydroxy-t-4-[(3-oxo-3,4-dihydro-2H-pyrido[3,2-b][1,4]thiazin-6-ylmethyl)-amino]-r-cyclohexanecarboxylic acid (2-methoxy-quinolin-8-yl)-amide] |
| ≤ 8 | COc1ccc2cccc(NC(=O)[C@]3(O)CC[C@@H](NCc4ccc5c(n4)NCCS5)CC3)c2n1 [Example 6, 4-[(3,4-Dihydro-2H-pyrido[3,2-b][1,4]thiazin-6-ylmethyl)-amino]-1-hydroxy-cyclohexanecarboxylic acid (2-methoxy-quinolin-8-yl)-amide] |
| ≤ 2 | COc1ccc2cccc(CC[C@]3(O)CC[C@@H](NCc4ccc5c(n4)NC(=O)CO5)CC3)c2n1 [Example 7, 6-({4-Hydroxy-4-[2-(2-methoxy-quinolin-8-yl)-ethyl]-cyclohexylamino}-methyl)-4H-pyrido[3,2-b][1,4]oxazin-3-one] |
| ≤ 2 | COc1ccc2cccc(CCC3(O)CCC(NCc4ccc5c(n4)NC(=O)CS5)CC3)c2n1 (centres unmarked) [Example 8, 6-({4-Hydroxy-4-[2-(2-methoxy-quinolin-8-yl)-ethyl]-cyclohexylamino}-methyl)-4H-pyrido[3,2-b][1,4]thiazin-3-one] |
| ≤ 2 | N#Cc1ccc2cccc(NC(=O)[C@]3(O)CC[C@@H](NCc4ccc5c(n4)NC(=O)CS5)CC3)c2n1 [Example 10, 1-Hydroxy-t-4-[(3-oxo-3,4-dihydro-2H-pyrido[3,2-b][1,4]thiazin-6-ylmethyl)-amino]-r-cyclohexanecarboxylic acid (2-cyano-quinolin-8-yl)-amide dihydrochloride] |
| ≤ 2 | N#Cc1ccc2cccc(NC(=O)[C@]3(O)CC[C@@H](NCc4ccc5c(n4)NC(=O)CO5)CC3)c2n1 [Example 11, 1-Hydroxy-t-4-[(3-oxo-3,4-dihydro-2H-pyrido[3,2-b][1,4]oxazin-6-ylmethyl)-amino]-r-cyclohexanecarboxylic acid (2-cyano-quinolin-8-yl)-amide hydrochloride] |
| ≤ 2 | COc1ccc2cccc(NC(=O)[C@]3(O)CC[C@@H](NCc4ccc5c(n4)NC(=O)CO5)CC3)c2n1 [Example 17, 1-Hydroxy-t-4-[(3-oxo-3,4-dihydro-2H-pyrido[3,2-b][1,4]oxazin-6 ylmethyl)-amino]-r-cyclohexanecarboxylic acid (2-methoxy-quinolin-8-yl)-amide] |
| ≤ 2 | Cc1ccc2cccc(NC(=O)[C@]3(O)CC[C@@H](NCc4ccc5c(n4)NC(=O)CO5)CC3)c2n1 [Example 18, 1-Hydroxy-t-4-[(3-oxo-3,4-dihydro-2H-pyrido[3,2-b][1,4]oxazin-6-ylmethyl)-amino]-r-cyclohexanecarboxylic acid (2-methyl-quinolin-8-yl)-amide dihydrochloride] |
| ≤ 2 | Cc1ccc2cccc(NC(=O)[C@]3(O)CC[C@@H](NCc4ccc5c(n4)NC(=O)CS5)CC3)c2n1 [Example 19, 1-Hydroxy-t-4-[(3-oxo-3,4-dihydro-2H-pyrido[3,2-b][1,4]thiazin-6-ylmethyl)-amino]-r-cyclohexanecarboxylic acid (2-methyl-quinolin-8-yl)-amide dihydrochloride] |
| ≤ 2 | COc1ccc2cccc(CC[C@]3(O)CC[C@@H](NCc4cnc5c(c4)NC(=O)CS5)CC3)c2n1 [Example 21, 7-({r-4-Hydroxy-4-[2-(2-methoxy-quinolin-8-yl)-ethyl]-c-cyclohexylamino}-methyl)-1H-pyrido[2,3-b][1,4]thiazin-2-one] |
| ≤ 2 | Cc1ccc2cccc(NC(=O)[C@]3(O)CC[C@@H](NCc4cc5c(cn4)OCC(=O)N5)CC3)c2n1 [Example 22, 1-Hydroxy-t-4-[(2-oxo-2,3-dihydro-1H-pyrido[3,4-b][1,4]oxazin-7-ylmethyl)-amino]-r-cyclohexanecarboxylic acid (2-methyl-quinolin-8-yl)-amide dihydrochloride] |
| ≤ 8 | COc1ccc2cccc(NC(=O)[C@]3(O)CC[C@@H](NCc4nc5c(cc4F)SCC(=O)N5)CC3)c2n1 [Example 23, t-4-[(7-Fluoro-3-oxo-3,4-dihydro-2H-pyrido[3,2-b][1,4]thiazin-6-ylmethyl)-amino]-1-hydroxy-r-cyclohexanecarboxylic acid (2-methoxy-quinolin-8-yl)-amide dihydrochloride] |
| ≤ 2 | Cc1cnc2cccc(NC(=O)[C@]3(O)CC[C@@H](NCc4ccc5c(n4)NC(=O)CS5)CC3)c2n1 [Example 25, 1-Hydroxy-t-4-[(3-oxo-3,4-dihydro-2H-pyrido[3,2-b][1,4]thiazin-6-ylmethyl)-amino]-r-cyclohexanecarboxylic acid (3-methyl-quinoxalin-5-yl)-amide dihydrochloride] |
| ≤ 2 | Cn1ccc2cccc(NC(=O)[C@]3(O)CC[C@@H](NCc4ccc5c(n4)NC(=O)CS5)CC3)c2c1=O [Example 26, 1-Hydroxy-t-4-[(3-oxo-3,4-dihydro-2H-pyrido[3,2-b][1,4]thiazin-6-ylmethyl)-amino]-r-cyclohexanecarboxylic acid (2-methyl-1-oxo-1,2-dihydro-isoquinolin-8-yl)-amide hydrochloride] |
| ≤ 8 | COc1nccc2cccc(NC(=O)[C@]3(O)CC[C@@H](NCc4ccc5c(n4)NC(=O)CS5)CC3)c12 [Example 27, 1-Hydroxy-t-4-[(3-oxo-3,4-dihydro-2H-pyrido[3,2-b][1,4]thiazin-6-ylmethyl)-amino]-r-cyclohexanecarboxylic acid (1-methoxy-isoquinolin-8-yl)-amide hydrochloride] |

| SMILES | MIC [µg/mL] |
| --- | --- |
| N#Cc1ccc2cccc(NC(=O)[C@@H]3CC[C@@H](NCc4ccc5c(n4)NC(=O)CO5)[C@@H](O)C3)c2n1 [Example 9, (1R,3S,4R)-3-Hydroxy-4-[(3-oxo-3,4-dihydro-2H-pyrido[3,2-b][1,4]oxazin-6-ylmethyl)-amino]-cyclohexanecarboxylic acid (2-cyano-quinolin-8-yl)-amide hydrochloride] | ≤ 2 |
| N#Cc1ccc2cccc(NC(=O)[C@H]3CC[C@H](NCc4ccc5c(n4)NC(=O)CS5)[C@H](O)C3)c2n1 [Example 12, (1 S,3R,4S)-3-Hydroxy-4-[(3-oxo-3,4-dihydro-2H-pyrido[3,2-b][1,4]thiazin-6-ylmethyl)-amino]-cyclohexanecarboxylic acid (2-cyano-quinolin-8-yl)-amide hydrochloride] | ≤ 2 |
| N#Cc1ccc2cccc(NC(=O)[C@H]3CC[C@H](NCc4ccc5c(n4)NC(=O)CO5)[C@H](O)C3)c2n1 [Example 13, (1S,3R,4S)-3-Hydroxy-4-[(3-oxo-3,4-dihydro-2H-pyrido[3,2-b][1,4]oxazin-6-ylmethyl)-amino]-cyclohexanecarboxylic acid (2-cyano-quinolin-8-yl)-amide hydrochloride] | ≤ 2 |
| N#Cc1ccc2cccc(NC(=O)[C@@H]3CC[C@@H](NCc4ccc5c(n4)NC(=O)CS5)[C@H](O)C3)c2n1 [Example 14, (1R,3R,4R)-3-Hydroxy-4-[(3-oxo-3,4-dihydro-2H-pyrido[3,2-b][1,4]thiazin-6-ylmethyl)-amino]-cyclohexanecarboxylic acid (2-cyano-quinolin-8-yl)-amide hydrochloride] | ≤ 2 |
| N#Cc1ccc2cccc(NC(=O)[C@@H]3CC[C@@H](NCc4ccc5c(n4)NC(=O)CS5)[C@@H](O)C3)c2n1 [Example 16, (1R,3S,4R)-3-Hydroxy-4-[(3-oxo-3,4-dihydro-2H-pyrido[3,2-b][1,4]thiazin-6-ylmethyl)-amino]-cyclohexanecarboxylic acid (2-cyano-quinolin-8-yl)-amide hydrochloride] | ≤ 2 |
| COc1ccc2cccc(NC(=O)[C@@H]3CC[C@@H](NCc4ccc5c(n4)NC(=O)CS5)[C@H](O)C3)c2n1 [Example 20, (1R,3R,4R)-3-Hydroxy-4-[(3-oxo-3,4-dihydro-2H-pyrido[3,2-b)[1,4]thiazin-6-ylmethyl)-amino]-cyclohexanecarboxylic acid (2-methoxy-quinolin-8-yl)-amide dihydrochloride] | ≤ 2 |

same assay, conditions: versus at least one of these organisms (panel of 8 strains); read-out: MIC

| MIC [µg/mL] | SMILES |
| --- | --- |
| ≤ 16 | O=C1CSc2ccc(CN[C@H]3CC[C@](O)(C(=O)Nc4ccnc5c4OCCO5)CC3)nc2N1 [Example 2, 1-Hydroxy-t-4-[(3-oxo-3,4-dihydro-2H-pyrido[3,2-b][1,4]thiazin-6-ylmethyl)-amino]-r-cyclohexanecarboxylic acid (2,3-dibydro-[1,4]dioxino[2,3-b]pyridin-8-yl)-amide dihydrochloride] |
| ≤ 16 | O=C1CSc2ccc(CN[C@H]3CC[C@H](C(=O)Nc4cccc5cnccc45)CC3)cc2N1 [Example 4, trans-4-[(3-Oxo-3,4-dihydro-2H-benzo[1,4]thiazin-6-ylmethyl)-amino]-cyclohexanecarboxylic acid isoquinolin-5-ylamide] |

same assay, conditions: versus some of these organisms (panel of 8 strains); read-out: MIC

| MIC [µg/mL] | SMILES |
| --- | --- |
| ≤ 2 | COc1ccc2cccc(NC(=O)[C@]3(O)CC[C@@H](NCc4nc5c(cc4Cl)SCC(=O)N5)CC3)c2n1 [Example 24, t-4-[(7-Chloro-3-oxo-3,4-dihydro-2H-pyrido[3,2-b][1,4]thiazin-6-ylmethyl)-amino]-1-hydroxy-r-cyclohexanecarboxylic acid (2-methoxy-quinolin-8-yl)-amide dihydrochloride] |

Reference: patent US7622481B2, “Antibacterial compounds” (priority 2003, dated 2009)
